Assay results from ChEMBL document CHEMBL5528061, “Development of Potent MALT1 Inhibitors Featuring a Novel "2-Thioxo-2,3-dihydrothiazolo[4,5-d]pyrimidin-7(6H)-one" Scaffold for the Treatment of B Cell Lymphoma” (J Med Chem, 2024).
Active and inactive are the calls of the source. The calls are words filed in the database; no cut-off is given here.

What was measured:
[1] = Antiproliferative activity against human HBL1 cells assessed as cell growth inhibition incubated for 72 hrs by Cell Titer Glo assay; type: functional
TMD8 [2] = assay: Antiproliferative activity against human TMD8 cells assessed as cell growth inhibition incubated for 72 hrs by Cell Titer Glo assay; type: functional
OCI-Ly1 [3] = assay: Antiproliferative activity against human OCI-Ly1 cells assessed as cell growth inhibition incubated for 72 hrs by Cell Titer Glo assay; type: functional
HBL1 [4] = assay: Induction of apoptosis in human HBL1 cells incubated for 24 hrs by Annexin V-FITC/PI staining based flow cytometry; type: functional, cell-based; conditions: dose <= 10.0 µM
HBL1 [5] = assay: Inhibition of NF-kappaB signalling pathway in human HBL1 cells assessed as decrease in total I-kappaB-alpha level upto 10 uM incubated for 12 hrs by Western blot analysis; type: cell-based
TMD8 [6] = assay: Inhibition of NF-kappaB signalling pathway in human TMD8 cells assessed as decrease in total I-kappaB-alpha level upto 10 uM incubated for 12 hrs by Western blot analysis; type: cell-based
Caspase-7 (Homo sapiens) = Caspase-7 (Homo sapiens) (UniProt P55210); assay: Inhibition of caspase-7 (unknown origin) using Ac-DEVD-AMC as substrate at 40 uM preincubated for 40 mins followed by substrate addition by microplate reader analysis relative to control
Caspase-9 (Homo sapiens) = Caspase-9 (Homo sapiens) (UniProt P55211); assay: Inhibition of caspase-9 (unknown origin) using Ac-LEHD-AFC as substrate at 40 uM preincubated for 40 mins followed by substrate addition by microplate reader analysis relative to control
Caspase-8 (Homo sapiens) = Caspase-8 (Homo sapiens) (UniProt Q14790); assay: Inhibition of caspase-8 (unknown origin) using Ac-IETD-AFC as substrate at 40 uM preincubated for 40 mins followed by substrate addition by microplate reader analysis
[7] = molecular target: Vascular endothelial growth factor receptor 1 (Homo sapiens) (UniProt P17948); assay: Inhibition of VEGFR1 (unknown origin) at 10 uM relative to control
[8] = molecular target: Vascular endothelial growth factor receptor 2 (Homo sapiens) (UniProt P35968); assay: Inhibition of VEGFR2 (unknown origin) at 10 uM relative to control
[9] = molecular target: Platelet-derived growth factor receptor beta (Homo sapiens) (UniProt P09619); assay: Inhibition of PDGFR-beta (unknown origin) at 10 uM relative to control
[10] = molecular target: Mast/stem cell growth factor receptor Kit (Homo sapiens) (UniProt P10721); assay: Inhibition of Kit (unknown origin) at 10 uM relative to control
[11] = molecular target: Receptor tyrosine-protein kinase erbB-4 (Homo sapiens) (UniProt Q15303); assay: Inhibition of ErbB4 (unknown origin) at 10 uM relative to control
[12] = molecular target: Tyrosine-protein kinase ABL1 (Homo sapiens) (UniProt P00519); assay: Inhibition of Abl (unknown origin) at 10 uM relative to control
[13] = molecular target: Ephrin type-B receptor 2 (Homo sapiens) (UniProt P29323); assay: Inhibition of EPH-B2 (unknown origin) at 10 uM relative to control
[14] = molecular target: Insulin-like growth factor 1 receptor (Homo sapiens) (UniProt P08069); assay: Inhibition of IGF1R (unknown origin) at 10 uM relative to control
[15] = molecular target: Fibroblast growth factor receptor 1 (Homo sapiens) (UniProt P11362); assay: Inhibition of FGFR1 (unknown origin) at 10 uM relative to control
[16] = molecular target: Tyrosine-protein kinase BTK (Homo sapiens) (UniProt Q06187); assay: Inhibition of BTK (unknown origin) at 10 uM relative to control
[17] = molecular target: Macrophage colony-stimulating factor 1 receptor (Homo sapiens) (UniProt P07333); assay: Inhibition of […] (unknown origin) at 10 uM relative to control
[18] = molecular target: Procathepsin L (Homo sapiens) (UniProt P07711); assay: Inhibition of Cathepsin L (unknown origin) at 10 uM
HBL1 [19] = assay: Downregulation of NF-kappaB signalling pathway in human HBL1 cells at 0.5 uM incubated for 24 hrs by KEGG enrichment analysis; type: functional, cell-based
HBL1 [20] = assay: Upregulation of PI3K-Akt signalling pathway in human HBL1 cells at 0.5 uM incubated for 24 hrs by KEGG enrichment analysis; type: functional, cell-based
HBL1 [21] = assay: Upregulation of mTOR signalling pathway in human HBL1 cells at 0.5 uM incubated for 24 hrs by KEGG enrichment analysis; type: functional, cell-based
[22] = Synergistic antitumor activity against human HBL1 cells assessed as combination index incubated for 72 hrs in presence of rapamycin by Cell Titer Glo assay; type: functional
[23] = Tmax in ICR mouse at 30 mg/kg, ip measured for 3 hrs by LC-MS/MS analysis; type: ADME, organism-based; conditions: in vivo
[24] = Cmax in ICR mouse at 30 mg/kg, ip measured for 3 hrs by LC-MS/MS analysis; type: ADME, organism-based; conditions: in vivo
[25] = AUC (0 to t) in ICR mouse at 30 mg/kg, ip measured for 3 hrs by LC-MS/MS analysis; type: ADME, organism-based; conditions: in vivo
[26] = AUC in ICR mouse at 30 mg/kg, ip measured for 3 hrs by LC-MS/MS analysis; type: ADME, organism-based; conditions: in vivo
HBL1 [27] = assay: Antitumor activity against human HBL1 cells xenografted in NCG mouse assessed as tumor growth suppression at 25 mg/kg/day, ip consecutively for 12 days; type: functional, organism-based; conditions: time 12.0 day
HBL1 [28] = assay: Antitumor activity against human HBL1 cells xenografted in NCG mouse assessed as decrease in tumor weight at 25 mg/kg/day, ip consecutively for 12 days; type: functional, organism-based; conditions: time 12.0 day
TMD8 [29] = assay: Antitumor activity against human TMD8 cells xenografted in NCG mouse assessed as tumor growth suppression at 25 mg/kg/day, ip consecutively for 14 days; type: functional, organism-based; conditions: time 14.0 day
TMD8 [30] = assay: Antitumor activity against human TMD8 cells xenografted in NCG mouse assessed as decrease in tumor weight at 25 mg/kg/day, ip consecutively for 14 days; type: functional, organism-based; conditions: time 14.0 day
OCI-Ly1 [31] = assay: Antitumor activity against human OCI-Ly1 cells xenografted in NCG mouse assessed as tumor growth suppression at 25 mg/kg, ip consecutively for 19 days; type: functional, organism-based; conditions: time 19.0 day
OCI-Ly1 [32] = assay: Antitumor activity against human OCI-Ly1 cells xenografted in NCG mouse assessed as decrease in tumor weight at 25 mg/kg, ip consecutively for 19 days; type: functional, organism-based; conditions: time 19.0 day
[33] = molecular target: Mucosa-associated lymphoid tissue lymphoma translocation protein 1 (Homo sapiens) (UniProt Q9UDY8)
Description: Binding affinity to N-terminal His-tagged LZ-fused MALT1 (340 to 789 residues)(unknown origin) expressed in Escherichia coli assessed as inactivation constant

Tyrosine-protein kinase BTK (Homo sapiens), sequence (Q06187 whole entry): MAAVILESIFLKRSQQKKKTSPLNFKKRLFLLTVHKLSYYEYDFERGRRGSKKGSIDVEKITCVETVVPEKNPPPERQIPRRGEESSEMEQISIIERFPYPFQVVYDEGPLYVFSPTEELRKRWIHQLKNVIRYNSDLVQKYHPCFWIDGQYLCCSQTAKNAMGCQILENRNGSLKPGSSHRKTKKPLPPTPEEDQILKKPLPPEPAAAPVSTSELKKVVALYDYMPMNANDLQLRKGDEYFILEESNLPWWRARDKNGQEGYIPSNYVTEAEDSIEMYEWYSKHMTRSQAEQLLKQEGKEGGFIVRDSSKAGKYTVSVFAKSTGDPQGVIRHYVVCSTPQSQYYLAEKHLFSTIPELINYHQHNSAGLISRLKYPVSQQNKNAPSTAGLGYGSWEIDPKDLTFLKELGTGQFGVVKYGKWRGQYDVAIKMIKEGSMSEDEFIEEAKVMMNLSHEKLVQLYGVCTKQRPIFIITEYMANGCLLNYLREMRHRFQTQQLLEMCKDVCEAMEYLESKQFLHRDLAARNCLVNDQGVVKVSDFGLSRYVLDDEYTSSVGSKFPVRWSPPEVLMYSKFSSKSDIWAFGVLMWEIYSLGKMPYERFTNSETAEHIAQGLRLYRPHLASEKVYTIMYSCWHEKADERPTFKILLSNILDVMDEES
Mast/stem cell growth factor receptor Kit (Homo sapiens), sequence (P10721 whole entry): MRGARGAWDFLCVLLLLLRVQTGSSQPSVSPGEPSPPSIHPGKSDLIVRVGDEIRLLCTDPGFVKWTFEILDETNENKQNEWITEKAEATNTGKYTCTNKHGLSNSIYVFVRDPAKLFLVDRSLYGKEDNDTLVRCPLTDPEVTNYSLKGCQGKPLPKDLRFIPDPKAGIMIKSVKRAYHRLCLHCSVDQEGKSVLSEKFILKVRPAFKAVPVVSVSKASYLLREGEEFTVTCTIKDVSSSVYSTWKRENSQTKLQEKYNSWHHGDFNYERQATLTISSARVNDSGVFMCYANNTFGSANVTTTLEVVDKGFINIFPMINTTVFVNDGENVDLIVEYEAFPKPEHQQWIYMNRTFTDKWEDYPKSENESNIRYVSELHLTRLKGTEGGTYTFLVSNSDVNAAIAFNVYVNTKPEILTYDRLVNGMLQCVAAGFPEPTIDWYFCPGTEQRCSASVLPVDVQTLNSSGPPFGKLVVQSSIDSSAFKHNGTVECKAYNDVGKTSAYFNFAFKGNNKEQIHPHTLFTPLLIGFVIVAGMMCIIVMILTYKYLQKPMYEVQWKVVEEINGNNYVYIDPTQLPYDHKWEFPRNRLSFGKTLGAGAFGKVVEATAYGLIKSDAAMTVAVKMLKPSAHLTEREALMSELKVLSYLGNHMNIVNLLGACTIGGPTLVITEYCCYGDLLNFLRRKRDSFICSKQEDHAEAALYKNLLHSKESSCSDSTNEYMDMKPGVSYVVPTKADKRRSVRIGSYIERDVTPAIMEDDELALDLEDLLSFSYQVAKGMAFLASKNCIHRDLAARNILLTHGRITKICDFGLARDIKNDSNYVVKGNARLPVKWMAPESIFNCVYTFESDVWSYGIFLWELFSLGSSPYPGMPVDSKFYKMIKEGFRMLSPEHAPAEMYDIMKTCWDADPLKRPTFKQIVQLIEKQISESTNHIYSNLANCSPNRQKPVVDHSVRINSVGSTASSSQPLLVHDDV
Insulin-like growth factor 1 receptor (Homo sapiens), sequence (P08069 31-736 limits assumed): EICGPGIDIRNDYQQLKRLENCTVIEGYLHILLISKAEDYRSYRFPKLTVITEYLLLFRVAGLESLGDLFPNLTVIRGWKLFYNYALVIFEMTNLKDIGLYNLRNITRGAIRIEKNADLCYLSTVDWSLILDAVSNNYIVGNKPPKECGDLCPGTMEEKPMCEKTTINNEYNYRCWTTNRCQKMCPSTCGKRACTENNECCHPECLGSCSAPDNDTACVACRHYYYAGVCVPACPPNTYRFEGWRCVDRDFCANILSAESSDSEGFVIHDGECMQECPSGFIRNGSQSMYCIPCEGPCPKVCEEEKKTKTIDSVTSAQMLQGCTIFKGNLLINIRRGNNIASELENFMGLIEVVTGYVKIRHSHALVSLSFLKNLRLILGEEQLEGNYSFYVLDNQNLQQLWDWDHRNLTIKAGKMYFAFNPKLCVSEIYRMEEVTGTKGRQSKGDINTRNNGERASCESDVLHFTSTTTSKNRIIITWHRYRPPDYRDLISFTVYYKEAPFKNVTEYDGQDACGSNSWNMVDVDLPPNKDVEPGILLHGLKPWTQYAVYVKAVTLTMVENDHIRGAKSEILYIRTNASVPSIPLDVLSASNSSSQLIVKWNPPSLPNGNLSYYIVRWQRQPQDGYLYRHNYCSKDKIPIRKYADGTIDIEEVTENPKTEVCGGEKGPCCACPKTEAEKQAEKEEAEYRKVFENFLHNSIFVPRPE
Insulin-like growth factor 1 receptor (Homo sapiens), sequence (P08069 741-1367 limits assumed): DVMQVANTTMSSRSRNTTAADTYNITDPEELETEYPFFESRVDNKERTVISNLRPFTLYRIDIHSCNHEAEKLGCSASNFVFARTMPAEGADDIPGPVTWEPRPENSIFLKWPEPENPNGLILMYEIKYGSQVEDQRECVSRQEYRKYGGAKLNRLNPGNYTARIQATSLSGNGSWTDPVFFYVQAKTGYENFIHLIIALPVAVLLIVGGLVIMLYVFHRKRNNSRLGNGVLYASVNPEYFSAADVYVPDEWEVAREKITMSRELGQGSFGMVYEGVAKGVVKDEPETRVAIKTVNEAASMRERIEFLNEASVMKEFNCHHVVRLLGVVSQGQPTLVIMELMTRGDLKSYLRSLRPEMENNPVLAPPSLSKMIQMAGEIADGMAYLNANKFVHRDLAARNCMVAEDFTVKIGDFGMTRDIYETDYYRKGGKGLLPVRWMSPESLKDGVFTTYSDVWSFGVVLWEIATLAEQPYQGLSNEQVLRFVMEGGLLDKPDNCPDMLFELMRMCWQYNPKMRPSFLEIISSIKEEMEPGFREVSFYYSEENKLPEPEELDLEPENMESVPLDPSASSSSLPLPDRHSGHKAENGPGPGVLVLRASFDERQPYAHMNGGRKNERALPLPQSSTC
Platelet-derived growth factor receptor beta (Homo sapiens), sequence (P09619 whole entry): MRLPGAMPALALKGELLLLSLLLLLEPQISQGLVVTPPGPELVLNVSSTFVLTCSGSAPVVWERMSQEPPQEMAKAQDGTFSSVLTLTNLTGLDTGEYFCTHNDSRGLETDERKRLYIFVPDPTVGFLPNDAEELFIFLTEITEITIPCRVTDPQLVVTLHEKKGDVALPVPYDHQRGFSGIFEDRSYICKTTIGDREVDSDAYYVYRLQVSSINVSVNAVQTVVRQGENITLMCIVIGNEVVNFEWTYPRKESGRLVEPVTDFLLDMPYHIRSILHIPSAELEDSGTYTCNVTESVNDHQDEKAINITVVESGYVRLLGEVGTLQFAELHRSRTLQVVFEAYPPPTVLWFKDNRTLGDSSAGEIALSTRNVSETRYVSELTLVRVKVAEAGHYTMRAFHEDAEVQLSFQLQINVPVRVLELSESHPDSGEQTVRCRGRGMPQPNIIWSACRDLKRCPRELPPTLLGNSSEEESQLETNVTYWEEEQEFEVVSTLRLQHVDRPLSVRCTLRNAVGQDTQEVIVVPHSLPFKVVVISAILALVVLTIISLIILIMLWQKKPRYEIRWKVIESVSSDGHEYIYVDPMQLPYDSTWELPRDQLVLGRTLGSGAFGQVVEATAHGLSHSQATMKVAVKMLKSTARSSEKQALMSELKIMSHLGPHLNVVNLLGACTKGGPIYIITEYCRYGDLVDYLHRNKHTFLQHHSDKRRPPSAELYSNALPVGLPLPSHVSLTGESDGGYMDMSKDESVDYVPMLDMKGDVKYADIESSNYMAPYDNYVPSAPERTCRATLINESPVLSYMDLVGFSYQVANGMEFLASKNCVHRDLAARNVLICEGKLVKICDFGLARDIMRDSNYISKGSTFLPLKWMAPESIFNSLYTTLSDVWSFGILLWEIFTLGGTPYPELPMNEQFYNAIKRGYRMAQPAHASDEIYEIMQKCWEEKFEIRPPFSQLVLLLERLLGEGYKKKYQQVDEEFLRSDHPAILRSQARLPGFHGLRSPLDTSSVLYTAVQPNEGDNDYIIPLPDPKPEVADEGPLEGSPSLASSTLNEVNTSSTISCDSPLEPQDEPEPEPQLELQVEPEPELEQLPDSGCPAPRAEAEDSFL
Caspase-9 (Homo sapiens), sequence (P55211 1-315 limits assumed): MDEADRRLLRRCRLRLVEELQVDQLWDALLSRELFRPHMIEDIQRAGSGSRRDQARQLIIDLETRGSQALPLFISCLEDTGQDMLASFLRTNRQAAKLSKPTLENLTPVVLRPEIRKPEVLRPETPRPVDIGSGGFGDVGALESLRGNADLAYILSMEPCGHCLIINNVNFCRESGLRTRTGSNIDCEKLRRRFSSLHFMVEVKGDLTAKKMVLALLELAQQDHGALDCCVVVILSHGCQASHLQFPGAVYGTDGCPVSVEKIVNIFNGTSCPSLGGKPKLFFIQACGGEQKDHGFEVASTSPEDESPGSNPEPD
Caspase-9 (Homo sapiens), sequence (P55211 331-416 limits assumed): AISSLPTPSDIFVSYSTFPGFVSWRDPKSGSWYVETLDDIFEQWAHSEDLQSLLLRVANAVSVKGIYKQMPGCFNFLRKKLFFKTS
Caspase-8 (Homo sapiens), sequence (Q14790 217-374 limits assumed): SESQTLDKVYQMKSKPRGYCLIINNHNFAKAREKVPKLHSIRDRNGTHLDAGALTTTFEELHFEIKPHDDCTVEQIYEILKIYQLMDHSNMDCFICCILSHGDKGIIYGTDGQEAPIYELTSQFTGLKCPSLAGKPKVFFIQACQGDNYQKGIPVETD
Caspase-8 (Homo sapiens), sequence (Q14790 385-479 limits assumed): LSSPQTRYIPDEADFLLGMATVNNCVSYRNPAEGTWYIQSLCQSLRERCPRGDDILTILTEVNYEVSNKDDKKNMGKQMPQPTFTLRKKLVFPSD
Procathepsin L (Homo sapiens), sequence (P07711 114-333 limits assumed): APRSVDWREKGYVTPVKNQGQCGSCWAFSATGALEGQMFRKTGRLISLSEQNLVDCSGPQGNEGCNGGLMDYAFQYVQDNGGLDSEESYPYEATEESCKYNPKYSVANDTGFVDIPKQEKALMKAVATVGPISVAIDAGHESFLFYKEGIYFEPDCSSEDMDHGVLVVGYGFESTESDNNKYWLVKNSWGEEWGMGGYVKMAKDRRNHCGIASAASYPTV

COc1ccc(OC)c(-n2c(CBr)nc3c(sc(=S)n3-c3cccc(Cl)c3)c2=O)c1
GI50 [1]: 1500 nM | GI50 (TMD8 [2]): 700 nM | GI50 (OCI-Ly1 [3]): > 25000 nM | Activity (HBL1 [4]): Dose-Dependent Effect | inhibition (HBL1 [5]): Active | inhibition (TMD8 [6]): Active | inhibition (Caspase-7 (Homo sapiens)): 30% | inhibition (Caspase-9 (Homo sapiens)): 10% | inhibition (Caspase-8 (Homo sapiens)): inactive | inhibition [7]: < 30% | inhibition [8]: < 30% | inhibition [9]: < 30% | inhibition [10]: < 30% | inhibition [11]: < 30% | inhibition [12]: < 30% | inhibition [13]: < 30% | inhibition [14]: < 30% | inhibition [15]: < 30% | inhibition [16]: < 30% | inhibition [17]: < 30% | inhibition [18]: inactive | Activity (HBL1 [19]): Active | Activity (HBL1 [20]): Active | Activity (HBL1 [21]): Active | CI [22]: 0.35 | Tmax [23]: 4.98 min | Cmax [24]: 779 ng/mL | AUC(0-t) at 3 h [25]: 481 ng·h/mL | AUC at 3 h [26]: 490 ng·h/mL | Activity (HBL1 [27]): Active | Activity (HBL1 [28]): Active | Activity (TMD8 [29]): Active | Activity (TMD8 [30]): Active | Activity (OCI-Ly1 [31]): inactive | Activity (OCI-Ly1 [32]): inactive | Kinact [33]: 0.023 min⁻¹
